Data taken from patent US5958719A, “Method for the determination of the activity of specific phosphotyrosine phosphatases and specific effectors thereof in intact cells” (Max-Planck Gesellschaft Zur Foderung der Wissenschaften E.V., priority 1995, dated 1999).
“Also recorded” adds a separate entry of the source.

What was measured:
NGF receptor PTK (Trk) = experiment: Inhibition of NGF receptor PTK (NGF-induced TrkA autophosphorylation, immunoprecipitation and anti-phosphotyrosine immunoblot) in PC12 cells; type: cell-based, rat; conditions: K252a 1 μM, 2 min (short) preincubation, then NGF 150 ng/ml 10 min; PC12 cells overexpressing TrkA
Description: (§1) PC 12 cells (rat pheochromocytoma cells) which overexpress NGF receptors (Trk A) (Obermeier et al. (1994)) were used for the experiments shown. Stimulation of the cells with NGF leads to a rapid autophosphorylation of these receptors at tyrosine residues. This autophosphorylation can be detected in immunoblots using anti-phosphotyrosine antibodies after immunoprecipitation of the receptors. The identity of the cellular PTPases which dephosphorylate autophosphorylated NGF receptors is not known.
PC12 cells that overexpress TrkA were incubated as stated for various periods in serum-free cell culture medium without supplements (lanes 1, 2) or with the NGF receptor PTK inhibitor K252a (final concentration 1 μM) (lanes 3-6). Then NGF (final concentration 150 ng/ml) (lanes 2-6) or the corresponding solvent (lane 1) was added and the incubation was continued for 10 minutes.

NGF receptor = NGF receptor dephosphorylation over time in intact NGF-stimulated TrkA-transfected PC12 cells after addition of PTK inhibitor; type: cell-based, rat; conditions: K252a 1 μM added after 10 min NGF stimulation; intact PC12 cells transfected with TrkA
Description: as §1
PC12 cells transfected with TrkA were treated in serum-free medium with NGF (lanes 2-6) or the corresponding solvent (lane 1). After a 10 minute stimulation, K252a (1 μM, B) or the corresponding solvent (DMSO, A) was added. At the stated various time points the cells treated correspondingly were tested as described in FIG. 1 and the phosphotyrosine content of the NGF receptors was examined. […] This decrease is caused by the activity of the NGF receptor-directed PTPase in the intact cells.

NGF receptor PTK = conditions: Ohmichi et al (1992); Tapley et al (1992); cited from earlier work
[1] = tested on: PDGF receptor-directed PTPase(s); type: cell-based, mouse
PDGF receptor = PDGF receptor dephosphorylation over time in intact PDGF-stimulated Swiss 3T3 cells after addition of PTK inhibitor; type: cell-based, mouse; conditions: AG1296 50 μM added after 5 min PDGF stimulation; intact Swiss 3T3 cells
Description: (§2) Swiss 3T3 fibroblasts (mouse) express PDGFα and PDGFβ receptors on the cell surface (Hosang et al. (1989)). Stimulation of the cells with PDGF leads to a rapid autophosphorylation of these receptors at tyrosine residues. This autophosphorylation can be detected in immunoblots using anti-phosphotyrosine antibodies after immunoprecipitation of the receptors and can be detected in unfractionated cell lysates. The autophosphorylated receptors are rapidly dephosphorylated by PDGF receptor-directed PTPase(s) (Bohmer et al. (1993)). The identity of the cellular PTPases which catalyse this reaction is not known. […] If the inhibitor is added to cells after activation of the PDGF receptor PTK, the dephosphorylation of the PDGF receptor can be monitored over time. (FIG. 3).
Swiss 3T3 cells were treated in serum-free medium with PDGF (FIG. 3, lanes 2-6) or the corresponding solvent (FIG. 3, lane 1). After 5 minutes stimulation AG1296 (50 μM, FIG. 3B) or the corresponding solvent (DMSO, FIG. 3 A) was added. The phosphotyrosine content of the PDGF receptor was examined in the cells thus treated at the stated various time points. […] This decrease is caused by the activity of the PDGF receptor-directed PTPase in the intact cells.

[2] = tested on: PDGF receptor-directed PTPase(s); experiment: PDGF receptor-directed PTPase activity (dephosphorylation of autophosphorylated PDGF receptor) in isolated Swiss 3T3 cell membranes; type: biochemical, mouse; conditions: AG1296 50 μM, 30 min incubation, 10 mM EDTA
Description: as §2
Isolated Swiss 3T3 cell membranes (10 μg protein per lane) were treated for 20 minutes on ice with PDGF (2 μg/ml). The activated PDGF receptor PTK was then autophosphorylated by adding 3 mM (final concentration) ATP. The kinase reaction was inhibited by addition of 10 mM EDTA. At the same time AG1296 (50 μM) (B) or the corresponding solvent (DMSO) (A) was added. The phosphotyrosine content of the PDGF receptor was measured in a similar manner to that described in FIG. 1 immediately after addition of the agents (0 min) or after 30 min incubation. […]

PDGF receptor PTK = experiment: Inhibition of PDGF receptor PTK (PDGF-induced receptor autophosphorylation, anti-phosphotyrosine immunoblot) in Swiss 3T3 cells; type: cell-based, mouse; conditions: AG1296 50 μM, 2 min preincubation, then PDGF-BB 100 ng/ml 5 min
Description: as §2
Confluent, resting Swiss 3T3 cells were incubated as stated for various periods in serum-free cell culture medium without supplements (lanes 1, 2) or with the PDGF receptor PTK inhibitor AG1296 (final concentration 50 μM) (lanes 3-6). Then human recombinant PDGF-BB (final concentration 100 ng/ml) (lanes 2-6) or the corresponding solvent (lane 1) was added and the incubation was continued for 5 minutes.

For COC(=O)C1(O)CC2OC1(C)n1c3ccccc3c3c4c(c5c6ccccc6n2c5c31)C(=O)NC4 (centres unmarked) [K252a], the “inhibition of Trk receptor PTK activity / NGF-induced receptor autophosphorylation” value (NGF receptor PTK (Trk)) is listed as “completely inhibits the activity; also recorded: completely suppressed”, the “phosphotyrosine content of the NGF receptor over time” value (NGF receptor) is listed as “very rapid dephosphorylation; also recorded: decreases significantly” and the “specificity of inhibition of NGF receptor PTK and PTK of other neurotrophin receptors” value (NGF receptor PTK) is listed as “specific inhibitor of the NGF receptor PTK”.

For CNc1ccc2oc(CC3OC4(CCC3C)OC(C(C)C(=O)c3ccc[nH]3)C(C)CC4C)nc2c1C(=O)O (centres unmarked) [A23187], the “action on PTPases which specifically dephosphorylate the PDGF receptor” value [1] was “activator” and the “Relative PDGF receptor-directed PTPase activity (% of control)” value ([1]; swiss 3t3 cells, 5 min, 1 µM) was 161 % of control.

For COc1cc2ncc(-c3ccccc3)nc2cc1OC [AG1296], the “phosphotyrosine content of the PDGF receptor over time” value (PDGF receptor) was “continuously decreases”, the “influence on PDGF receptor-directed PTPase activity (dephosphorylation)” value [2] was “does not influence the activity of the PTPase(s); also recorded: does not inhibit; also recorded: does not influence this dephosphorylation” and the “inhibition of PDGF receptor PTK activity / PDGF-induced receptor autophosphorylation” value (PDGF receptor PTK) was “completely inhibits its activity; also recorded: completely suppressed”.
